What was measured:
Type in all cases: binding
CtKti12 [1] = biological target: T1, CtKti12 (Thermochaetoides thermophila, UniProt G0SHI1); assay: thermal shift assay (SYPRO Orange); conditions: 1 mM ATP, 2 mM MgCl2, 20 mM Tris-HCl pH 7.5, 150 mM NaCl, 2 mM DTT; 0.6 °C/min
T1 construct: gene CTHT_0070100; full-length, codon-optimized ORF in pET24d (NcoI/XhoI), purified from bacteria; PDB 6QP0 (earlier work) covers the ATPase domain only
T1 sequence (G0SHI1 1-378): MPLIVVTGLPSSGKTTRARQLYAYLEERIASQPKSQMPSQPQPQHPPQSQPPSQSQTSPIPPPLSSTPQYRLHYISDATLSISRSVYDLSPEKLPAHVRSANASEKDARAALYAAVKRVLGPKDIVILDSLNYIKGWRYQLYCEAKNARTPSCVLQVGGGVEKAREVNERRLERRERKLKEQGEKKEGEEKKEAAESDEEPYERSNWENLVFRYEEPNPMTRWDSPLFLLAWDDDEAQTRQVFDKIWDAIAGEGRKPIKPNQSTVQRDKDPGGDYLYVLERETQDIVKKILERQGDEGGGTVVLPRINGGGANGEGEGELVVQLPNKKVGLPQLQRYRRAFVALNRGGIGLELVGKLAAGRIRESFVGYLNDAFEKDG

CtKti12 [2] = biological target: T2, CtKti12 (Thermochaetoides thermophila, UniProt G0SHI1, K14A); assay: fluorescence polarization, one-site fit
T2 construct: gene CTHT_0070100; full-length, codon-optimized ORF in pET24d (NcoI/XhoI), purified from bacteria; PDB 6QP0 (earlier work) covers the ATPase domain only

CtKti12 [3] = biological target: T3, CtKti12 (Thermochaetoides thermophila, UniProt G0SHI1, K14V); assay: fluorescence polarization, one-site fit
T3 construct: gene CTHT_0070100; full-length, codon-optimized ORF in pET24d (NcoI/XhoI), purified from bacteria; PDB 6QP0 (earlier work) covers the ATPase domain only

CtKti12 [4] = biological target: T4, CtKti12 (Thermochaetoides thermophila, UniProt G0SHI1, K14L); assay: fluorescence polarization, one-site fit
T4 construct: gene CTHT_0070100; full-length, codon-optimized ORF in pET24d (NcoI/XhoI), purified from bacteria; PDB 6QP0 (earlier work) covers the ATPase domain only

CtKti12 [5] = biological target: T1, CtKti12; assay: fluorescence polarization, one-site fit

T4 sequence (G0SHI1 entry or part of it K14L): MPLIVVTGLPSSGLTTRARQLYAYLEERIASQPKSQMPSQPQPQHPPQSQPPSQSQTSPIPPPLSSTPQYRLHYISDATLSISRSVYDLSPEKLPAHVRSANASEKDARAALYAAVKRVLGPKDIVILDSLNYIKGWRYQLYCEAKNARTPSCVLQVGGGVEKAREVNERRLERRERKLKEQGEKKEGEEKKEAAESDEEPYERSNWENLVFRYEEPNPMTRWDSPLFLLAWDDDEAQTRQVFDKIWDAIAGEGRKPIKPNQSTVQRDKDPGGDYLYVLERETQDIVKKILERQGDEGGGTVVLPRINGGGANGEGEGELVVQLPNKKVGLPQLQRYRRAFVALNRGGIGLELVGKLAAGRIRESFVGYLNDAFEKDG
T2 sequence (G0SHI1 entry or part of it K14A): as the sequence (G0SHI1 entry or part of it K14L) above, with L14A counted along it
T3 sequence (G0SHI1 entry or part of it K14V): as the sequence (G0SHI1 entry or part of it K14L) above, with L14V counted along it

Nc1ncnc2c1ncn2[C@@H]1O[C@H](COP(=O)(O)OP(=O)(O)OP(=O)(O)O)[C@@H](O)[C@H]1O [ATP]
melting point without ATP to with ATP (CtKti12 [1]): 46.0 to 50.0 °C

CNc1ccccc1C(=O)O[C@H]1[C@@H](O)[C@H](n2cnc3c(N)ncnc32)O[C@@H]1CO[P@@](=O)(O)O[P@](=O)(O)OP(=O)(O)O [MANT-ATP]
Kd (CtKti12 [2]): > 100 µM
Kd (CtKti12 [3]): > 100 µM
Kd (CtKti12 [4]): 25 ± 2.4 µM
Kd (CtKti12 [5]): 1.5 ± 0.2 µM
